Results reported in patent publication US20240209011A1, “HETEROAROMATIC PHOSPHONIUM SALTS FOR TREATING CANCER” (FLORATEK PHARMA S.A., priority 2021, published 2024).

How the values were obtained:
Type in all cases: cell-based
[1] = tested on: PC-07-0045; experiment: PDX-derived cell culture cytotoxicity (CellTiter-Glo); settings: 120 h; pancreatic PDX PC-07-0045; absolute IC50; 5 days
Procedure: (§1) PDX-derived cell cultures were obtained from tumors explanted from mice and isolated by mechanical and enzymatic dissociation. […] Cells were harvested and seeded in 96-wells plates at a density of 1.25 to 5×10^3 cells/well for cytotoxicity assays. Cells were incubated 48 h at 37° C. prior to addition of test molecules and vehicle (DMSO, 0.1%) at desired final concentrations. Cell viability was assessed before drugs' addition (To) and 5 days after test molecules addition by measuring ATP cell content using CellTiter-Glo® Luminescent Cell Viability Assay (Promega) according to the manufacturer's instructions. Luciferase activity was measured on a luminometer (PerkinElmer® EnVision™). Each concentration of compounds was tested in triplicate.
(§2) Viability was calculated as a percentage of ATP value compared to vehicle treated controls.
(§3) For PDX primary cell cultures, the tumour tissue was washed with PBS containing antibiotic-antimycotic and non-tumour tissue and necrotic tumour tissues were separated. The tumour tissue was transferred to a new dish and cut into 1-2 mm^3 fragments, resuspended in RPMI-1640 medium and centrifuged at 1,200 rpm for 6 min at room temperature. The pelleted material was resuspended with 15 mL of Tumour Cell Digestion Solution and incubated at 37° C. for 1 hour with agitation. Following further addition of media, centrifugation and passage through a […] cell strainer, the homogenous cell mixture was layered onto 15 mL of Ficoll-Paque PLUS in a 50 mL conical tube and centrifuged for 15 min at 1,600 rpm. The interface cells were collected, washed with media, separated by centrifugation at 1,200 rpm. The cell pellet was resuspended in serum free media supplemented with growth factors. 10,000 cells/wells were plated in a 96 well plate and incubated at 37° C., 5% CO2, 95% air and 100% relative humidity overnight. The cytotoxicity assay was conducted as above. IC50 values represent absolute IC50.

[2] = tested on: LU-01-0004; experiment: as above; settings: 120 h; lung PDX LU-01-0004; absolute IC50; 5 days
Procedure: as §1, §2, §3

[3] = tested on: CH-17-0098; experiment: as above; settings: 120 h; bile duct PDX CH-17-0098; absolute IC50; 5 days
Procedure: as §1, §2, §3

[4] = tested on: ST-02-0322; experiment: as above; settings: 120 h; stomach PDX ST-02-0322; absolute IC50; 5 days
Procedure: as §1, §2, §3

[5] = tested on: BR-05-0399; experiment: as above; settings: 120 h; breast PDX BR-05-0399; absolute IC50; 5 days
Procedure: as §1, §2, §3

[6] = tested on: ME-21-0028; experiment: as above; settings: 120 h; skin melanoma PDX ME-21-0028; absolute IC50; 5 days
Procedure: as §1, §2, §3

[7] = tested on: KI-12-0062; experiment: as above; settings: 120 h; kidney PDX KI-12-0062; absolute IC50; 5 days
Procedure: as §1, §2, §3

[8] = tested on: ST-02-0173; experiment: as above; settings: 120 h; stomach PDX ST-02-0173; absolute IC50; 5 days
Procedure: as §1, §2, §3

[9] = tested on: LU-01-0010; experiment: as above; settings: 120 h; lung PDX LU-01-0010; absolute IC50; 5 days
Procedure: as §1, §2, §3

[10] = tested on: CO-04-0722; experiment: as above; settings: 120 h; colon PDX CO-04-0722; absolute IC50; 5 days
Procedure: as §1, §2, §3

[11] = tested on: ST-02-0007; experiment: as above; settings: 120 h; stomach PDX ST-02-0007; absolute IC50; 5 days
Procedure: as §1, §2, §3

[12] = tested on: ES-06-0122; experiment: as above; settings: 120 h; esophagus PDX ES-06-0122; absolute IC50; 5 days
Procedure: as §1, §2, §3

[13] = tested on: kidney PDX; experiment: Activity against kidney PDX; settings: kidney PDX growth; summary of Table 12
Procedure: as §1, §2, §3

[14] = tested on: SCLC doxorubicin resistant cell line H69AR; experiment: Cell viability assay (CellTiter-Blue/CellTiter-Glow); settings: Homo sapiens, absolute IC50, 72 h
Outline: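 Readout: CellTiter-Blue (ex 570/em 600 nm) or CellTiter-Glo luminescence after 72 h compound exposure. 5–6 half-log concentrations, top 30 or 100 μM, duplicate/triplicate, DMSO <0.3%. IC50 = absolute, 4-parameter fit at T/C=50%.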

Structure (SMILES)	IC50 [1]	IC50 [2]	IC50 [3]	IC50 [4]	IC50 [5]	IC50 [6]	IC50 [7]	IC50 [8]	IC50 [9]	IC50 [10]	IC50 [11]	IC50 [12]	IC50 [13]	IC50 [14]
CCNC(=O)Oc1ccc2c(=O)cc(-c3ccc(CCCC[P+](c4ccccc4)(c4ccccc4)c4ccccc4)cc3)oc2c1O.[Br-] [SND126A, 4-[4-[7-(Ethylcarbamoyloxy)-8-hydroxy-4-oxo-chromen-2-yl]phenyl]butyltriphenylphosphonium bromide]	7.7 µM	8.4 µM	8.5 µM	9.8 µM	6.5 µM	8 µM	11 µM	14.7 µM	7.6 µM	3.4 µM	10.7 µM	8.3 µM	< 20 µM	
CCNC(=O)Oc1ccc2c(=O)cc(-c3ccc(CCCC[P+](c4ccccc4)(c4ccccc4)c4ccccc4)cc3)oc2c1OC(=O)NCC.[Br-] [SND124, 4-[4-[7,8-Bis(ethylcarbamoyloxy)-4-oxo-chromen-2-yl]phenyl]-butyltriphenylphosphonium bromide]	7 µM	7.1 µM	6.1 µM	10.6 µM	5.2 µM	7.7 µM	8.5 µM	11.3 µM	7 µM	3.2 µM	10.2 µM	8.5 µM	< 20 µM	
O=c1cc(-c2ccc(CCCC[P+](c3ccccc3)(c3ccccc3)c3ccccc3)cc2)oc2c3c(ccc12)OCO3.[Br-] [SND123, 4-[4-(6-oxo-[1,3]dioxolo[4,5-h]chromen-8-yl)phenyl]butyl-triphenylphosphonium bromide]	4 µM	3 µM	0.72 µM	5.2 µM	2.1 µM	0.8 µM	3 µM	2.2 µM	0.8 µM	2.1 µM	1.5 µM	4.5 µM	< 20 µM	11.8 µM
COc1c(O)ccc2c(=O)cc(-c3ccc(CCCC[P+](c4ccccc4)(c4ccccc4)c4ccccc4)cc3)oc12.[Br-] [SND140, (4-(4-(7-hydroxy-8-methoxy-4-oxo-4H-chromen-2-yl)phenyl)butyl)triphenylphosphonium bromide]	13.2 µM	11.7 µM	4.98 µM	13.3 µM	6 µM	1.1 µM	16.8 µM	9.8 µM	3 µM	11.6 µM	12 µM	13.5 µM	< 20 µM	14.6 µM
